According to patent publication US20240254115A1 (ACONDICIONAMIENTO TARRASENSE, priority 2021, published 2024):

Assays:
[1] = target: T1, human σ2/TMEM97 receptor (Homo sapiens, UniProt Q5BJF2); assay: Binding assay to human σ2/TMEM97 receptor; conditions: transfected HEK-293 membranes, 10 nM [3H]-DTG, 25° C. 120 minutes; + may also stand for 1-50% inhibition at 1 or 10 μM; read-out: Binding σ-2 Ki
T1 construct: expressed in transfected cells; host or cells: HEK-293
Experimental: Binding Assay to Human σ2/TMEM97 Receptor
Transfected HEK-293 membranes (15 μg) were incubated with 10 nM [^3H]-1,3-Di-o-tolylguanidine (DTG) in assay buffer containing Tris-HCl 50 mM at pH 8.0. NSB (non-specific binding) was measured by adding 10 μM haloperidol. The binding of the test compound was measured at either one concentration (% inhibition at 1 or 10 μM) or five different concentrations to determine affinity values (Ki). Plates were incubated at 25° C. for 120 minutes. After the incubation period, the reaction mix was transferred to MultiScreen HTS, FC plates (Millipore), filtered and washed 3 times with ice-cold 10 mM Tris-HCL (pH 8.0). Filters were dried and counted at approximately 40% efficiency in a MicroBeta scintillation counter (Perkin-Elmer) using EcoScint liquid scintillation cocktail.

[2] = target: T2, human σ1 receptor (Homo sapiens, UniProt Q99720); assay: Human σ1 receptor radioligand assay; conditions: transfected HEK-293 membranes, 5 nM [3H](+)-pentazocine, 37° C. 120 minutes; + may also stand for 1-50% inhibition at 1 or 10 μM; read-out: Binding σ-1 Ki
T2 construct: expressed in transfected cells; host or cells: HEK-293
Experimental: Human σ1 Receptor Radioligand Assay
Transfected HEK-293 membranes (7 μg) were incubated with 5 nM of [^3H](+)-pentazocine in assay buffer containing Tris-HCl 50 mM at pH 8. NBS (non-specific binding) was measured by adding 10 μM haloperidol. The binding of the test compound was measured at either one concentration (% inhibition at 1 or 10 μM) or five different concentrations to determine affinity values (Ki). Plates were incubated at 37° C. for 120 minutes. After the incubation period, the reaction mix was then transferred to MultiScreen HTS, FC plates (Millipore), filtered and plates were washed 3 times with ice-cold 10 mM Tris-HCL (pH7.4). Filters were dried and counted at approximately 40% efficiency in a MicroBeta scintillation counter (Perkin-Elmer) using EcoScint liquid scintillation cocktail.

T1 sequence (Q5BJF2 whole entry): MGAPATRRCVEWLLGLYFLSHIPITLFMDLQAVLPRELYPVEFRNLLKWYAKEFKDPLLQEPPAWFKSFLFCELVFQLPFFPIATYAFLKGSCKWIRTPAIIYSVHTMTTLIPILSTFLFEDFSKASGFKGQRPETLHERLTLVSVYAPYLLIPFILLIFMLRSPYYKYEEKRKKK
T2 sequence (Q99720 whole entry): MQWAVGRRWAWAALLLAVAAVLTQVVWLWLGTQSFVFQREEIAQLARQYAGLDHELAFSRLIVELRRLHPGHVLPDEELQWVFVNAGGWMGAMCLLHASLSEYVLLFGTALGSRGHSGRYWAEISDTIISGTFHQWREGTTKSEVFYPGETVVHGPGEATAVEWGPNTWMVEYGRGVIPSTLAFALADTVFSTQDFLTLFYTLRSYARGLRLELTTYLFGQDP

O=S(=O)(NC1CN(Cc2ccccc2)C1)c1ccc(N2CCOCC2)nc1 [Example 43, N-(1-Benzylazetidin-3-yl)-6-morpholinopyridine-3-sulfonamide]
Ki [1]: > 1000 nM | Ki [2]: < 100 nM

O=S(=O)(N[C@@H]1CCN(Cc2ccc(C(F)(F)F)nc2)C1)c1ccc(N2CCOCC2)nc1 [Example 44, (R)-6-Morpholino-N-(1-((6-(trifluoromethyl)pyridin-3-yl)methyl)pyrrolidin-3-yl)pyridine-3-sulfonamide]
Ki [1]: > 1000 nM | Ki [2]: 500 to 1000 nM

O=S(=O)(c1ccc(N2CCOCC2)nc1)N1CCC2(CCN(Cc3ccccc3)CC2)C1 [Example 45, 4-(5-((8-Benzyl-2,8-diazaspiro[4.5]decan-2-yl)sulfonyl)pyridin-2-yl)morpholine]
Ki [1]: 100 to 500 nM | Ki [2]: 500 to 1000 nM

O=S(=O)(NC1CC2(CCN(Cc3ccccc3)CC2)C1)c1ccc(N2CCOCC2)nc1 [Example 46, N-(7-Benzyl-7-azaspiro[3.5]nonan-2-yl)-6-morpholinopyridine-3-sulfonamide]
Ki [1]: 100 to 500 nM | Ki [2]: > 1000 nM

O=S(=O)(c1ccc(N2CCOCC2)nc1)N1CCC2(CC1)CN(Cc1ccccc1)C2 [Example 47, 4-(5-((2-Benzyl-2,7-diazaspiro[3.5]nonan-7-yl)sulfonyl)pyridin-2-yl)morpholine]
Ki [1]: 100 to 500 nM | Ki [2]: > 1000 nM

N#Cc1cccc(CN2CCC3(CC2)CCN(S(=O)(=O)c2ccc(N4CCOCC4)nc2)CC3)c1 [Example 48, 3-((9-((6-Morpholinopyridin-3-yl)sulfonyl)-3,9-diazaspiro[5.5]undecan-3-yl)methyl)benzonitrile]
Ki [1]: < 100 nM | Ki [2]: > 1000 nM

CC(C)N([C@@H]1CCN(Cc2ccc(C#N)cc2)C1)S(=O)(=O)c1ccc(N2CCOCC2)nc1 [Example 49, (R)—N-(1-(4-Cyanobenzyl)pyrrolidin-3-yl)-N-isopropyl-6-morpholinopyridine-3-sulfonamide]
Ki [1]: > 1000 nM | Ki [2]: > 1000 nM

CC(C)N([C@H]1CCN(Cc2ccc(C#N)cc2)C1)S(=O)(=O)c1ccc(N2CCOCC2)nc1 [Example 50, (S)-N-(1-(4-Cyanobenzyl)pyrrolidin-3-yl)-N-isopropyl-6-morpholinopyridine-3-sulfonamide]
Ki [1]: > 1000 nM | Ki [2]: 500 to 1000 nM

O=S(=O)(N[C@H]1CC[C@H](NCc2ccccc2)CC1)c1ccc(N2CCOCC2)nc1 [Example 51, N-((1 r,4r)-4-(Benzylamino)cyclohexyl)-6-morpholinopyridine-3-sulfonamide]
Ki [1]: 100 to 500 nM | Ki [2]: > 1000 nM

N#Cc1cc(CN[C@H]2CC[C@H](NS(=O)(=O)c3ccc(N4CCOCC4)nc3)CC2)ccc1F [Example 52, N-((1r,4r)-4-((3-Cyano-4-fluorobenzyl)amino)cyclohexyl)-6-morpholinopyridine-3-sulfonamide]
Ki [1]: 100 to 500 nM | Ki [2]: > 1000 nM

O=S(=O)(N[C@H]1CC[C@H](NCc2ccccc2F)CC1)c1ccc(N2CCOCC2)nc1 [Example 53, N-((1r,4r)-4-((2-Fluorobenzyl)amino)cyclohexyl)-6-morpholinopyridine-3-sulfonamide]
Ki [1]: 100 to 500 nM | Ki [2]: > 1000 nM

O=S(=O)(N[C@H]1CC[C@H](NCc2cccc(F)c2)CC1)c1ccc(N2CCOCC2)nc1 [Example 54, N-((1r,4r)-4-((3-Fluorobenzyl)amino)cyclohexyl)-6-morpholinopyridine-3-sulfonamide]
Ki [1]: 100 to 500 nM | Ki [2]: 100 to 500 nM

O=S(=O)(N[C@H]1CC[C@H](NCc2ccncc2)CC1)c1ccc(N2CCOCC2)nc1 [Example 55, 6-Morpholino-N-((1r,4r)-4-((pyridin-4-ylmethyl)amino)cyclohexyl)pyridine-3-sulfonamide]
Ki [1]: > 1000 nM | Ki [2]: > 1000 nM

CN(Cc1ccccc1F)[C@H]1CC[C@H](NS(=O)(=O)c2ccc(N3CCOCC3)nc2)CC1 [Example 56, N-((1r,4r)-4-((2-Fluorobenzyl)(methyl)amino)cyclohexyl)-6-morpholinopyridine-3-sulfonamide]
Ki [1]: < 100 nM | Ki [2]: > 1000 nM

CN(Cc1cccc(F)c1)[C@H]1CC[C@H](NS(=O)(=O)c2ccc(N3CCOCC3)nc2)CC1 [Example 57, N-((1r,4r)-4-((3-Fluorobenzyl) (methyl)amino)cyclo-hexyl)-6-morpholinopyridine-3-sulfonamide]
Ki [1]: < 100 nM | Ki [2]: > 1000 nM

CN(Cc1ccc(F)c(C#N)c1)[C@H]1CC[C@H](NS(=O)(=O)c2ccc(N3CCOCC3)nc2)CC1 [Example 58, N-((1r,4r)-4-((3-Cyano-4-Fluorobenzyl)(methyl)amino)cyclo-hexyl)-6-morpholinopyridine-3-sulfonamide]
Ki [1]: < 100 nM | Ki [2]: > 1000 nM

CN(Cc1cccnc1)[C@H]1CC[C@H](NS(=O)(=O)c2ccc(N3CCOCC3)nc2)CC1 [Example 59, N-((1r,4r)-4-(Methyl(pyridin-3-ylmethyl)amino)cyclohexyl)-6-morpholinopyridine-3-sulfonamide]
Ki [1]: > 1000 nM | Ki [2]: > 1000 nM

CN(Cc1ccncc1)[C@H]1CC[C@H](NS(=O)(=O)c2ccc(N3CCOCC3)nc2)CC1 [Example 60, N-((1r,4r)-4-(Methyl(pyridin-4-ylmethyl)amino)cyclohexyl)-6-morpholinopyridine-3-sulfonamide]
Ki [1]: 100 to 500 nM | Ki [2]: > 1000 nM

O=S(=O)(c1ccc(N2CCOCC2)nc1)N1CCCC2(CCN(Cc3ccccc3)CC2)C1 [Example 61, 4-(5-((9-Benzyl-2,9-diazaspiro[5.5]undecan-2-yl)sulfonyl)pyridin-2-yl)morpholine]
Ki [1]: < 100 nM | Ki [2]: 100 to 500 nM

N#Cc1ccc(CN2CCC3(CCCN(S(=O)(=O)c4ccc(N5CCOCC5)nc4)C3)CC2)cc1F [Example 62, 2-Fluoro-4-((2-((6-morpholinopyridin-3-yl)sulfonyl)-2,9-diazaspiro[5.5]undecan-9-yl)methyl)benzonitrile]
Ki [1]: < 100 nM | Ki [2]: 100 to 500 nM

O=S(=O)(c1ccc(N2CCOCC2)nc1)N1CCCC2(CCN(Cc3ccncc3)CC2)C1 [Example 63, 4-(5-((9-(Pyridin-4-ylmethyl)-2,9-diazaspiro[5.5]undecan-2-yl)sulfonyl)pyridin-2-yl)morpholine]
Ki [1]: < 100 nM | Ki [2]: 100 to 500 nM

O=S(=O)(c1ccc(N2CCOCC2)nc1)N1CCC[C@H](CNCc2ccc(O)nc2)C1 [Example 64, (R)-5-((((1-((6-Morpholinopyridin-3-yl)sulfonyl)piperidin-3-yl)methyl)amino)methyl)pyridin-2-ol]
Ki [1]: 100 to 500 nM | Ki [2]: > 1000 nM

O=S(=O)(c1ccc(N2CCOCC2)nc1)N1CCC[C@@H](CNCc2ccc(O)nc2)C1 [Example 65, (S)-5-((((1-((6-Morpholinopyridin-3-yl)sulfonyl)piperidin-3-yl)methyl)amino)methyl)pyridin-2-ol]
Ki [1]: 100 to 500 nM | Ki [2]: > 1000 nM

CC(C)(C)CCN1CCC2(CC1)CCN(S(=O)(=O)c1ccc(C(F)(F)F)nc1)CC2 [Example 66, 3-(3,3-Dimethylbutyl)-9-((6-(trifluoromethyl)pyridin-3-yl)sulfonyl)-3,9-diazaspiro[5.5]undecane]
Ki [1]: < 100 nM | Ki [2]: < 100 nM

CC(C)(C)CCN1CCC2(CC1)CCN(S(=O)(=O)c1ccc(C(F)(F)F)nc1)C2 [Example 67, 8-(3,3-Dimethylbutyl)-2-((6-(trifluoromethyl)pyridin-3-yl)sulfonyl)-2,8-diazaspiro[4.5]decane]
Ki [1]: < 100 nM | Ki [2]: < 100 nM
